Experiment [1] concerns the target T1, PARP7 (Homo sapiens (Human), UniProt Q7Z3E1). As to the kind of experiment: Enzymatic assay for inhibition of PARP7 (TR-FRET displacement of Probe A from the TIPARP active site). The experiment is classed as binding. Here is the method: 20 nL of a dose response curve of each test compound was spotted in black 384-well polystyrene proxiplates (Perkin Elmer) using a Mosquito (TTP Labtech). […] Reactions were incubated at 25° C. for an additional 30 min, then read on an Envision platereader equipped with a LANCE/DELFIA top mirror (Perkin Elmer) using excitation of 320 nm and emission of 615 nm and […] with a 90 μs delay. The ratio of the 665/615 nm emission were calculated for each well to determine the amount of complex of TIPARP and Probe A in each well. […] The Hill Coefficient is normally allowed to float but may also be fixed at 1 in a 3-parameter fit. Y is the % inhibition and X is the compound concentration.
A general note: In TR-FRET formats the signal depends on donor and acceptor labels being close together.

The target of experiment [2] is T1, PARP7. In words: PARP7 inhibition potency (Table A-1). The experiment is classed as biochemical. Particulars: comparison of separated isomers; see Table A-1.
In experiment [3] the test system is CT26 cells. As to the kind of experiment: Tumor growth in murine syngeneic model CT26 (subcutaneous dosing). It counts as in vivo. Particulars: CT26, BALB/c mice. The text has this: (§1) Example G: Inhibition of Tumor Growth by Treatment with PARP7 Inhibitors
For the CT26 study BALB/c mice were inoculated subcutaneously at the right flank with CT26 cells for tumor development. Four days after tumor inoculation, 36 mice with tumor size ranging from 40-55 mm^3 (average tumor size 47 mm^3) were selected and assigned into 3 groups using stratified randomization with 12 mice in each group based upon their tumor volumes. The treatments were started from the next day post randomization (defined randomization day as day 0) and were treated with vehicle (0.5% methylcellulose +0.2% Tween 80), Compound 98 (500 mg/kg S.C. QD*21 days), Compound 93A (100 mg/kg S.C. BID*21 days) respectively. The tumor sizes were measured three times per week during the treatment. The entire study was terminated on day 21.
(§2) Mean tumor volume and SEM for both studies are plotted. Statistical significance, calculated using two-tailed unpaired t-tests in which each treatment group was compared to vehicle control, is indicated by an asterisk. Statistics were performed on groups with less than 20% animal loss (D21 for CT26, D17 for 4T1).

The next experiment relates to 4T1-luc2-1A4 cells. In words: Tumor growth in murine syngeneic model 4T1 (orthotopic, mammary fat pad). The experiment is classed as in vivo. As to conditions: 4T1, BALB/c mice.
Source text: as §1
For the 4T1 study female BALB/c mice were inoculated orthotopically in the mammary fat pad with 4T1-luc2-1A4 cells for tumor development. Eight days after tumor inoculation, 45 mice with tumor size ranging from 63-88 mm^3 (average tumor size 67 mm^3) were selected and assigned into 3 groups using stratified randomization with 15 mice in each group based upon their tumor volumes. The treatments were started from the next day post randomization (defined randomization day as D0) and were treated with vehicle (0.5% methylcellulose +0.2% Tween 80), Compound 98 (500 mg/kg S.C. QD*21 days), Compound 93A (100 mg/kg S.C. BID*21 days) respectively. The tumor sizes were measured three times per week during the treatment. The entire study was terminated on D20.
as §2

The next experiment has as its system NCI-H1373 cells. In words: Tumor growth in human NCI-H1373 lung cancer xenograft (oral dosing). The experiment is classed as in vivo, SCID mice. As to conditions: 62.5 to 500 mg/kg once a day for 28 days. The text has this:
(§3) Example H: Inhibition of Tumor Growth by Oral Dosing with a PARP7 Inhibitor
(§4) The effect of Compound 561 on tumor growth was studied in a human NCI-H1373 lung cancer xenograft and a murine CT26 colon cancer syngeneic model.
For the NCI-H1373 study, SCID mice were inoculated subcutaneously in the right flank with NCI-H1373 cells for tumor development. After 5 days of tumor growth, mice with 89-148 mm^3 tumors were randomized into treatment groups with mean tumor volumes of 121 mm^3. The treatments were started from the next day post randomization (defined randomization day as day 0) and were treated with vehicle (50% Labrasol) or Compound 561 (62.5, 125, 250, and 500 mg/kg) once a day for 28 days by oral gavage. Tumor volumes were determined by manual calipers every 2-3 days. Mean tumor volume and SEM are plotted. QD: once a day; PO: per oral administration. Statistical significance is calculated using two-way ANOVA followed by Bonferroni post-tests in which the treatment groups were compared to vehicle control (**** P<0.0001).

The test system of experiment [4] is CT26 cells. In words: Tumor growth in murine CT26 colon cancer syngeneic model (oral dosing). As to conditions: CT26, BALB/c mice, BID 125-500 mg/kg or QD 500 mg/kg, 21 days. It counts as in vivo.
Source text: as §3, §4
For the CT26 study, BALB/c mice were inoculated subcutaneously in the right flank with CT26 cells for tumor development. After 5 days of cell inoculation, mice with 36-79 mm^3 tumors were randomized into treatment groups with mean tumor volumes of 54 mm^3. The treatments were started from the next day post randomization (defined randomization day as day 0) and were treated with vehicle (25 or 50% Labrasol) or Compound 561 BID (2 times a day every 12 hours) at doses ranging from 125-500 mg/kg or QD (once a day) at 500 mg/kg for 21 days by oral gavage or needle subcutaneously. Tumor volumes were determined by manual calipers every 2-3 days. Mean tumor volume and SEM are plotted. BID: twice a day; PO: per oral administration; QD: once a day; SC: per subcutaneous administration. The first two doses for vehicle and Compound 561 500 mg/kg in the QD groups were delivered by subcutaneous injection. […] Statistical significance is calculated using two-way ANOVA followed by Bonferroni post-tests in which the treatment groups were compared to vehicle control (**** P<0.0001).

T1 sequence (Q7Z3E1 whole entry): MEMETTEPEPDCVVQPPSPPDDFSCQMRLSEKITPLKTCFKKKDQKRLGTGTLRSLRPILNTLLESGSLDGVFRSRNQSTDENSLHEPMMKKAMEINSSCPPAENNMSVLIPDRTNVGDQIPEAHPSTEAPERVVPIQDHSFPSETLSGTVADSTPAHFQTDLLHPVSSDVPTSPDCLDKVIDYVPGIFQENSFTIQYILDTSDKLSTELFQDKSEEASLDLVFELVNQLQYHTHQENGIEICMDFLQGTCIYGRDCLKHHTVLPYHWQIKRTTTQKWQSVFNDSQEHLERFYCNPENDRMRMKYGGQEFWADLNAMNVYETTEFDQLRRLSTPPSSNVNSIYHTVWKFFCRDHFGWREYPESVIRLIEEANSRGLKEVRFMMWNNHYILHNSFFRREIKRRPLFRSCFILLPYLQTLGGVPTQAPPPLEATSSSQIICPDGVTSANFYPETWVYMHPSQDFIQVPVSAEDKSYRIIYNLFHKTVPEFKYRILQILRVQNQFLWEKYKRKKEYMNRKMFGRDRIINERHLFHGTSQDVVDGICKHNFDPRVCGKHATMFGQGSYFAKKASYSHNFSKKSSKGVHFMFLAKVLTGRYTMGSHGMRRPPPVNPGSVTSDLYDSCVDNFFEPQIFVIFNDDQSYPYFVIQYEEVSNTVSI

For the molecule “5-[(2R)-2-[3-[4-(5-chloropyrimidin-2-yl)piperazin-1-yl]-3-oxopropoxy]-3-methoxypropoxy]-4-(trifluoromethyl)-2,3-dihydropyridazin-3-one [Example 560 Isomer B]”, the IC50 – broadly, the concentration that gives 50% inhibition – on PARP7 [1] lay in the range of 100 to 1000 nM.

“5-[[(2R)-1-[3-[4-(5-chloropyrimidin-2-yl)piperazin-1-yl]-3-oxopropoxy]-3-methoxypropan-2-yl]oxy]-4-(trifluoromethyl)-2,3-dihydropyridazin-3-one [Example 560 Isomer D]” registered an IC50 at PARP7 [1] of 100 to 1000 nM.

In turn, “5-[[(2S)-1-[3-[4-(5-chloropyrimidin-2-yl)piperazin-1-yl]-3-oxopropoxy]-3-methoxypropan-2-yl]oxy]-4-(trifluoromethyl)-2,3-dihydropyridazin-3-one [Example 560 Isomer C]” gave an IC50 on PARP7 [1] below 100 nM.

As to `N#Cc1ccc(N2CCN(C(=O)c3cccc(OC[C@@H]4c5ccccc5CN4c4cn[nH]c(=O)c4C(F)(F)F)c3)CC2)nc1` (single isomer, unassigned) [Example 18 Isomer B], on PARP7 [2], the “relative potency of the enantiomers” value is “more potent enantiomer”.

On to `N#Cc1ccc(N2CCN(C(=O)CCOC[C@@H]3c4ccccc4CN3c3cn[nH]c(=O)c3C(F)(F)F)CC2)nc1` [Example 93A, 6-[4-(3-[[(1S)-2-[6-oxo-5-(trifluoromethyl)-1,6-dihydropyridazin-4-yl]-2,3-dihydro-1H-isoindol-1-yl]methoxy]propanoyl)piperazin-1-yl]pyridine-3-carbonitrile], for which the tumor growth result in the experiment with CT26 cells [3] (100 mg/kg S.C. BID*21 days) and with 4T1-luc2-1A4 cells (100 mg/kg S.C. BID*21 days) was “significantly reduce tumor growth” throughout.

As for `N#Cc1ccc(N2CCN(C(=O)CCOC[C@@H]3CCCN3c3cn[nH]c(=O)c3C(F)(F)F)CC2)nc1` [Example 98, 6-[4-(3-[[(2S)-1-[6-Oxo-5-(trifluoromethyl)-1,6-dihydropyridazin-4-yl]pyrrolidin-2-yl]methoxy]propanoyl)piperazin-1-yl]pyridine-3-carbonitrile], the tumor growth result in the experiment with CT26 cells [3] (500 mg/kg S.C. QD*21 days) and in the experiment with 4T1-luc2-1A4 cells (500 mg/kg S.C. QD*21 days) was “significantly reduce tumor growth” in each case.

`N#Cc1ccc(N2CCN(C(=O)CNCC[C@@H]3c4ccccc4CN3c3cn[nH]c(=O)c3C(F)(F)F)CC2)nc1` [Example 144B, 6-[4-[2-([2-[(1R)-2-[6-oxo-5-(trifluoromethyl)-1,6-dihydropyridazin-4-yl]-2,3-dihydro-1H-isoindol-1-yl]ethyl]amino)acetyl]piperazin-1-yl]pyridine-3-carbonitrile] displayed an IC50 on PARP7 [1] of 100 to 1000 nM.

Turning to `C[C@@H](COCCC(=O)N1CCN(c2ncc(C(F)(F)F)cn2)CC1)Nc1cn[nH]c(=O)c1C(F)(F)F` [Example 561, 5-[[(2S)-1-(3-oxo-3-[4-[5-(trifluoromethyl)pyrimidin-2-yl]piperazin-1-yl]propoxy)propan-2-yl]amino]-4-(trifluoromethyl)-2,3-dihydropyridazin-3-one], the tumor regression result with NCI-H1373 cells is listed as “complete tumor regression at all dose levels”. For the same molecule, the tumor growth result with CT26 cells [4] was “significantly reduces tumor growth”.

(Values after patent publication US11014913B2, “Pyridazinones as PARP7 inhibitors” (Ribon Therapeutics Inc., priority 2018, dated 2021).)
